ChEMBL document CHEMBL5038660, “Computational and Structure-Based Development of High Potent Cell-Active Covalent Inhibitor Targeting the Peptidyl-Prolyl Isomerase NIMA-Interacting-1 (Pin1)” (J Med Chem, 2022)
Blank lines part the entries; values can stand above or below the molecule they belong to. The source made the active and inactive calls. The rule behind the calls is not given here.

Assays:
[1] = molecular target: T1, Peptidyl-prolyl cis-trans isomerase NIMA-interacting 1 (Homo sapiens, UniProt Q13526); experiment: Ratio of test compound IC50 to ZL-Pin01 IC50 for N-terminal-GST-fused human Pin1 expressed in Escherichia coli BL21(DE3) by fluorescence polarization assay
[2] = molecular target: T1, Peptidyl-prolyl cis-trans isomerase NIMA-interacting 1; experiment: Displacement of 5-FITC-(Acp)-Bth-D-pThr-Pip-2-NaI-Q from N-terminal-GST-fused human Pin1 expressed in Escherichia coli BL21(DE3) incubated for 12 hrs by fluorescence polarization assay
[3] = molecular target: T1, Peptidyl-prolyl cis-trans isomerase NIMA-interacting 1; experiment: Displacement of 5-FITC-(Acp)-Bth-D-pThr-Pip-2-NaI-Q from N-terminal-GST-fused human Pin1 expressed in Escherichia coli BL21(DE3) at 20 to 50 uM incubated for 12 hrs by fluorescence polarization assay; settings: dose 20-50 µM
MDA-MB-231 [4] = experiment: Downregulation of CCND1 gene expression in PIN-1 knockout human MDA-MB-231 cells at 4 to 8 uM incubated for 24 hrs by qRT-PCR analysis; format: functional, cell-based; settings: dose 4-8 µM
[5] = molecular target: T1, Peptidyl-prolyl cis-trans isomerase NIMA-interacting 1; experiment: Covalent binding affinity to Cys113 residue of N-terminal His6-tagged human Pin1 expressed in Escherichia coli BL21 (DE3) incubated for overnight followed by tryptic digestion for 16 hrs by HPLC-nESI MS/MS scan analysis
MDA-MB-231 [6] = experiment: Inhibition of colony formation in human MDA-MB-231 cells at 0.25 to 4 uM incubated for 12 days with 48 hrs fresh compound replenishment by crystal violet staining based analysis; format: functional, cell-based; settings: dose 0.25-4 µM, time 12.0 day
[7] = tested on: Peptidyl-prolyl cis-trans isomerase NIMA-interacting 1 (Homo sapiens), Q13526 [C113A]; experiment: Displacement of 5-FITC-(Acp)-Bth-D-pThr-Pip-2-NaI-Q from human Pin1 C113A mutant expressed in Escherichia coli BL21(DE3) incubated for 12 hrs by fluorescence polarization assay
[8] = molecular target: T1, Peptidyl-prolyl cis-trans isomerase NIMA-interacting 1; experiment: Covalent binding affinity to N-terminal His6-tagged human Pin1 expressed in Escherichia coli BL21 (DE3) assessed as increase in 418.16 Da molecular weight incubated for overnight by mass spectrometry
Homo sapiens = organism: Homo sapiens; experiment: Displacement of 5-FITC-(Acp)-Bth-D-pThr-Pip-2-NaI-Q from human Pin1 C57A mutant expressed in Escherichia coli BL21(DE3) incubated for 12 hrs by fluorescence polarization assay
[9] = molecular target: T1, Peptidyl-prolyl cis-trans isomerase NIMA-interacting 1; experiment: Inhibition of Pin1 in human MDA-MB-231 cells assessed as reduction in c-Myc level at 5 to 10 uM by western blot analysis; format: cell-based; settings: dose 5-10 µM
MDA-MB-231 [10] = experiment: Downregulation of MCL-1 protein expression in human MDA-MB-231 cells transfected with PIN1 siRNA at 5 to 10 uM by western blot analysis; format: functional, cell-based; settings: dose 5-10 µM
[11] = molecular target: T1, Peptidyl-prolyl cis-trans isomerase NIMA-interacting 1; experiment: Inhibition of Pin1 in human MDA-MB-231 cells assessed as reduction in C-MYC gene expression incubated for 24 hrs by qRT-PCR analysis; format: cell-based; settings: dose 4-8 µM
[12] = tested on: Peptidyl-prolyl cis-trans isomerase NIMA-interacting 1 (Homo sapiens), Q13526 [C113A]; experiment: Covalent binding affinity to N-terminal His6-tagged human Pin1 C113A mutant expressed in Escherichia coli BL21(DE3) at compound:protein ratio of 3:1 to 5:1 incubated for overnight by mass spectrometry
MDA-MB-231 [13] = experiment: Antiproliferative activity against human MDA-MB-231 cells assessed as reduction in cell viability incubated for 3 days by CellTiter-Glo luminescent assay; format: functional, cell-based; settings: MDA-MB-231, 72 h
[14] = molecular target: T1, Peptidyl-prolyl cis-trans isomerase NIMA-interacting 1; experiment: Inhibition of Pin1 in human MDA-MB-231 cells assessed as reduction in MCL-1 gene expression incubated for 24 hrs by qRT-PCR analysis; format: cell-based; settings: dose 4-8 µM
[15] = molecular target: T1, Peptidyl-prolyl cis-trans isomerase NIMA-interacting 1; experiment: Inhibition of Pin1 in human MDA-MB-231 cells assessed as reduction in MCL-1 level at 5 to 10 uM by western blot analysis; format: cell-based; settings: dose 5-10 µM
MDA-MB-468 [16] = experiment: Antiproliferative activity against human MDA-MB-468 cells assessed as reduction in cell viability incubated for 8 days with 48 hrs fresh compound replenishment by CellTiter-Glo luminescent assay; format: functional, cell-based; settings: time 8.0 day
MDA-MB-231 [17] = experiment: Downregulation of c-Myc protein expression in human MDA-MB-231 cells transfected with PIN1 siRNA at 5 to 10 uM by western blot analysis; format: functional, cell-based; settings: dose 5-10 µM
[18] = molecular target: T1, Peptidyl-prolyl cis-trans isomerase NIMA-interacting 1; experiment: Inhibition of Pin1 in human MDA-MB-231 cells assessed as reduction in cyclin D1 level at 5 to 10 uM by western blot analysis; format: cell-based; settings: dose 5-10 µM
[19] = molecular target: T1, Peptidyl-prolyl cis-trans isomerase NIMA-interacting 1; experiment: Inhibition of Pin1 in human MDA-MB-231 cells assessed as induction of Pin1 degradation incubated for 16 hrs by immunoblot analysis; format: cell-based; settings: dose 2.5-15 µM
[20] = molecular target: T1, Peptidyl-prolyl cis-trans isomerase NIMA-interacting 1; experiment: Covalent binding affinity to N-terminal His6-tagged human Pin1 expressed in Escherichia coli BL21 (DE3) incubated for overnight by mass spectrometry
MDA-MB-231 [21] = experiment: Downregulation of cyclin D1 protein expression in human MDA-MB-231 cells transfected with PIN1 siRNA at 5 to 10 uM by western blot analysis; format: functional, cell-based; settings: dose 5-10 µM
[22] = molecular target: T1, Peptidyl-prolyl cis-trans isomerase NIMA-interacting 1; experiment: Inhibition of Pin1 in human MDA-MB-231 cells assessed as reduction in CCND1 gene expression incubated for 24 hrs by qRT-PCR analysis; format: cell-based; settings: dose 4-8 µM
MDA-MB-468 [23] = experiment: Inhibition of colony formation in human MDA-MB-468 cells at 0.25 to 4 uM incubated for 12 days with 48 hrs fresh compound replenishment by crystal violet staining based analysis; format: functional, cell-based; settings: dose 0.25-4 µM, time 12.0 day
[24] = molecular target: T1, Peptidyl-prolyl cis-trans isomerase NIMA-interacting 1; experiment: Displacement of 5-FITC-(Acp)-Bth-D-pThr-Pip-2-NaI-Q from N-terminal-GST-fused human Pin1 expressed in Escherichia coli BL21(DE3) assessed as maximum rate of inactivation incubated for 12 hrs by fluorescence polarization assay
MDA-MB-231 [25] = experiment: Downregulation of MCL-1 gene expression in PIN-1 knockout human MDA-MB-231 cells at 4 to 8 uM incubated for 24 hrs by qRT-PCR analysis; format: functional, cell-based; settings: dose 4-8 µM
MDA-MB-231 [26] = experiment: Downregulation of C-MYC gene expression in PIN-1 knockout human MDA-MB-231 cells at 4 to 8 uM incubated for 24 hrs by qRT-PCR analysis; format: functional, cell-based; settings: dose 4-8 µM
[27] = molecular target: T1, Peptidyl-prolyl cis-trans isomerase NIMA-interacting 1; experiment: Displacement of 5-FITC-(Acp)-Bth-D-pThr-Pip-2-NaI-Q from N-terminal-GST-fused human Pin1 expressed in Escherichia coli BL21(DE3) assessed as Kinact/Ki ratio incubated for 12 hrs by fluorescence polarization assay
MDA-MB-468 [28] = experiment: Antiproliferative activity against human MDA-MB-468 cells assessed as reduction in cell viability incubated for 3 days by CellTiter-Glo luminescent assay; format: functional, cell-based; settings: MDA-MB-468, 72 h
MDA-MB-468 [29] = experiment: Inhibition of colony formation in human MDA-MB-468 cells at 0.63 to 10 uM incubated for 12 days with 48 hrs fresh compound replenishment by crystal violet staining based analysis; format: functional, cell-based; settings: dose 0.63-10 µM, time 12.0 day
[30] = molecular target: T1, Peptidyl-prolyl cis-trans isomerase NIMA-interacting 1; experiment: Inhibition of Pin1 in human MDA-MB-231 cells assessed as reduction in C-MYC gene expression at 8 to 16 uM incubated for 24 hrs by qRT-PCR analysis; format: cell-based; settings: dose 8-16 µM
[31] = molecular target: T1, Peptidyl-prolyl cis-trans isomerase NIMA-interacting 1; experiment: Inhibition of Pin1 in human MDA-MB-231 cells assessed as reduction in CCND1 gene expression at 8 to 16 uM incubated for 24 hrs by qRT-PCR analysis; format: cell-based; settings: dose 8-16 µM
[32] = molecular target: T1, Peptidyl-prolyl cis-trans isomerase NIMA-interacting 1; experiment: Inhibition of Pin1 in human MDA-MB-231 cells assessed as reduction in MCL-1 gene expression at 8 to 16 uM incubated for 24 hrs by qRT-PCR analysis; format: cell-based; settings: dose 8-16 µM
MDA-MB-231 [33] = experiment: Inhibition of colony formation in human MDA-MB-231 cells at 0.63 to 10 uM incubated for 12 days with 48 hrs fresh compound replenishment by crystal violet staining based analysis; format: functional, cell-based; settings: dose 0.63-10 µM, time 12.0 day
[34] = molecular target: T1, Peptidyl-prolyl cis-trans isomerase NIMA-interacting 1; experiment: Covalent binding affinity to N-terminal His6-tagged human Pin1 expressed in Escherichia coli BL21 (DE3) assessed as increase in 292.1 Da molecular weight incubated for overnight by mass spectrometry

Ratio IC50 [1]: 0.8
IC50 [2]: 1060 nM
Compound: O=C(CCl)N1CCC2(CC1)SCC(=O)N2CCc1ccc(-c2ccccc2)o1

inhibition [3]: > 50%
Compound: Cc1ccc(N2C(=O)CSC23CCN(C(=O)CCl)CC3)cc1

Ratio IC50 [1]: 0.2
IC50 [2]: 260 nM
Compound: O=C(CCl)N1CCC2(CC1)SCC(=O)N2Cc1ccc(-c2ccccc2)o1

Ratio IC50 [1]: > 10
IC50 [2]: > 100000 nM
Compound: CC(=O)N1CCC2(CC1)SCC(=O)N2Cc1ccc(-c2cccc3ccccc23)o1

Ratio IC50 [1]: 0.33
IC50 [2]: 440 nM
Compound: N#Cc1ccc(-c2ccc(CN3C(=O)CSC34CCN(C(=O)CCl)CC4)o2)cc1

Ratio IC50 [1]: 0.54
IC50 [2]: 720 nM
Compound: O=C(CCl)N1CCC2(CC1)SCC(=O)N2Cc1ccc(-c2ccc(C(F)(F)F)cc2)o1

Ratio IC50 [1]: > 10
IC50 [2]: > 100000 nM
Compound: CC(=O)N1CCC2(CC1)SCC(=O)N2Cc1ccco1

Ratio IC50 [1]: 0.42
IC50 [2]: 560 nM
Compound: O=C(CCl)N1CCC2(CC1)SCC(=O)N2Cc1ccc(Cl)o1

The remaining lines, values behind:

Compound: CS(=O)(=O)c1ccc(-c2ccc(CN3C(=O)CSC34CCN(C(=O)CCl)CC4)o2)cc1
Ratio IC50 [1]: 0.27
IC50 [2]: 360 nM

Compound: CC(Cl)C(=O)N1CCC2(CC1)SCC(=O)N2Cc1ccc(-c2ccccc2)o1 (centres undefined)
Ratio IC50 [1]: > 10
IC50 [2]: > 100000 nM

Compound: O=C(CCl)N1CCC2(CC1)SCC(=O)N2Cc1ccc(-c2ccc(-c3ccccc3)cc2)o1
Ratio IC50 [1]: 1
IC50 [2]: 1320 nM

Compound: Cc1cccc(N2C(=O)CSC23CCN(C(=O)CCl)CC3)c1
inhibition [3]: > 50%

Compound: O=C(CCl)N1CCC2(CC1)SCC(=O)N2Cc1ccc(-c2ccc3ccccc3c2)o1
Ratio IC50 [1]: 0.29
IC50 [2]: 380 nM

Compound: O=C(CCl)N1CCC2(CC1)SCC(=O)N2Cc1ccc(-c2cccc3ccccc23)o1
inhibition (MDA-MB-231 [4]): inactive
Activity [5]: Active
inhibition (MDA-MB-231 [6]): Active
inhibition [7]: inactive
Activity [8]: Active
inhibition (Homo sapiens): Active
Ratio IC50 [1]: 0.05
inhibition [9]: Active
inhibition (MDA-MB-231 [10]): inactive
IC50 [2]: 67 nM
inhibition [11]: Dose-Dependent Effect
Activity [12]: inactive
IC50 (MDA-MB-231 [13]): 2800 nM
inhibition [14]: Dose-Dependent Effect
inhibition [15]: Active
Activity (MDA-MB-468 [16]): Active
inhibition (MDA-MB-231 [17]): inactive
inhibition [18]: Active
inhibition [19]: Dose-Dependent Effect
Activity [20]: 100%
inhibition (MDA-MB-231 [21]): inactive
inhibition [22]: Dose-Dependent Effect
inhibition (MDA-MB-468 [23]): Active
Kinact [24]: 0.058 min⁻¹
inhibition (MDA-MB-231 [25]): inactive
inhibition (MDA-MB-231 [26]): inactive
Ratio [27]: 27.1 M⁻¹ s⁻¹
IC50 (MDA-MB-468 [28]): 1900 nM

Compound: O=C(CCl)N1CCC2(CC1)SCC(=O)N2Cc1ccccc1
inhibition [3]: > 50%

Compound: O=C(CCl)N1CCC2(CC1)SCC(=O)N2Cc1ccc(Br)o1
Ratio IC50 [1]: 0.46
IC50 [2]: 610 nM

Compound: COc1ccc(-c2ccc(CN3C(=O)CSC34CCN(C(=O)CCl)CC4)o2)cc1
Ratio IC50 [1]: 0.19
IC50 [2]: 250 nM

Compound: O=C(CCl)N1CCC2(CC1)SCC(=O)N2c1ccc(Cl)cc1
inhibition [3]: > 50%

Compound: O=C(CCl)N1CCC2(CC1)SCC(=O)N2Cc1ccco1
Activity [5]: Active
inhibition [3]: > 50%
inhibition (MDA-MB-468 [29]): Active
IC50 [2]: 1330 nM
IC50 (MDA-MB-231 [13]): 12800 nM
inhibition [30]: Active
Activity [20]: 100%
IC50 (MDA-MB-468 [28]): 8600 nM
inhibition [31]: Active
inhibition [32]: Active
inhibition (MDA-MB-231 [33]): Active
Activity [34]: Active

Compound: C=CC(=O)N1CCC2(CC1)SCC(=O)N2Cc1ccc(-c2ccccc2)o1
Ratio IC50 [1]: > 10
IC50 [2]: > 100000 nM

Compound: Cc1ccc(-c2ccc(CN3C(=O)CSC34CCN(C(=O)CCl)CC4)o2)cc1
Ratio IC50 [1]: 0.2
IC50 [2]: 270 nM
